Reference: US11524968B2, “Heterocyclic compound as a protein kinase inhibitor” (HK inno.N Corporation, priority 2017, dated 2022)

Biological target: JAK1 (Homo sapiens (Human), UniProt P23458)
Assay: Analysis of JAK1 activity inhibition ability (ADP-Glo Kinase Assay)
Assay type: biochemical
Details: JAK1 enzyme, ADP-Glo luminescence, ATP 250 uM, IRS-itide substrate, 30° C. 40 minutes; read-out: IC50
Procedure, shortened: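 JAK1 enzyme, IRS-itide substrate (40 ng/mL) and 250 uM ATP, both as prepared in kinase buffer (Tris-HCl pH 7.5, MgCl2, BSA, DTT), reacted with compound 40 min at 30 °C. ADP formed was detected by ADP-Glo luminescence; IC50 is the concentration giving 50% inhibition versus control.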

Sequence of JAK1 (P23458 whole entry): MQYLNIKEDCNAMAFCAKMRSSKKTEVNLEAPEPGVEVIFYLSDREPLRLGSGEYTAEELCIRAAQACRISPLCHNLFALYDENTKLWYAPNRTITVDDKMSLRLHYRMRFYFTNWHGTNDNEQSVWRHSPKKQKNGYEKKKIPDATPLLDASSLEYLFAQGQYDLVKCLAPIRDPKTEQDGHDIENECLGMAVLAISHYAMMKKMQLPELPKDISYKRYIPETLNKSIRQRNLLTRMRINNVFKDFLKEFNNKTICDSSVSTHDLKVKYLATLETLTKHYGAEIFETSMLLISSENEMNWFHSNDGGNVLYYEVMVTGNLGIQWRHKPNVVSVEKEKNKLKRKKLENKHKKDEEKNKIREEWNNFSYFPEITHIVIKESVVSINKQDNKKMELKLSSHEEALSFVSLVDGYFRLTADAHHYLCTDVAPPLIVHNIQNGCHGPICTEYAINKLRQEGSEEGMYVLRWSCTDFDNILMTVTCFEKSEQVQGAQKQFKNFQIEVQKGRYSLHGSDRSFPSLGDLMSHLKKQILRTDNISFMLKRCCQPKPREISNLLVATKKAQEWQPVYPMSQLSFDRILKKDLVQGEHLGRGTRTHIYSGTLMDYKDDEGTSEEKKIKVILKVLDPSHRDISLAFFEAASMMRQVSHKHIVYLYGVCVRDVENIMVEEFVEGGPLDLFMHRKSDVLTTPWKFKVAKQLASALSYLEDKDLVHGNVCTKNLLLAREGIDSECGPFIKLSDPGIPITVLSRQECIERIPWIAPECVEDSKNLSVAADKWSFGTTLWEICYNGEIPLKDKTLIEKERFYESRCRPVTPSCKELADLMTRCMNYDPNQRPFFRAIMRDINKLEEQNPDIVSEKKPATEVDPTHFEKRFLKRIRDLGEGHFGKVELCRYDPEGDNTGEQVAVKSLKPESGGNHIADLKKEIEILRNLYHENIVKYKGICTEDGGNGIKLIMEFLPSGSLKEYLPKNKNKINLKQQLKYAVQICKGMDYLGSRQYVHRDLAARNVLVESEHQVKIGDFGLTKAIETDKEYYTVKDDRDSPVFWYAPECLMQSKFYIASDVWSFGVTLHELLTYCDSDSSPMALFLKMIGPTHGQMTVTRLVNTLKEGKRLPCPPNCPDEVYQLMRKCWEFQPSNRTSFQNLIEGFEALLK

IC50 [µM]	SMILES
> 0.2	CC1CN(C(=O)c2ccc(-c3ccc(F)cc3F)[nH]c2=O)CC=C1c1cc(NC(=O)C2CC2)nc2[nH]ccc12 (centres unmarked) [Example 317, N-(4-(1-(6-(2,4-difluorophenyl)-2-oxo-1,2-dihydropyridine-3-carbonyl)-3-methyl-1,2,3,6-tetrahydropyridin-4-yl)-1H-pyrrolo[2,3-b]pyridin-6-yl)cyclopropanecarboxamide]
> 0.2	COC(=O)C1(C(=O)N2CC=C(c3cc(NC(=O)C4CC4)nc4[nH]ccc34)C(C)C2)CCC1 (centres unmarked) [Example 318, methyl 1-(4-(6-(cyclopropanecarboxamido)-1H-pyrrolo[2,3-b]pyridin-4-yl)-3-methyl-1,2,3,6-tetrahydropyridine-1-carbonyl)cyclobutane-1-carboxylate]
> 0.2	COC(=O)C1(C(=O)N2CC=C(c3cc(NC(=O)C4CC4)nc4[nH]ccc34)C(C)C2)CC1 (centres unmarked) [Example 319, methyl 1-(4-(6-(cyclopropanecarboxamido)-1H-pyrrolo[2,3-b]pyridin-4-yl)-3-methyl-1,2,3,6-tetrahydropyridine-1-carbonyl)cyclopropane-1-carboxylate]
> 0.2	COC(=O)C(C)C(=O)N1CC=C(c2cc(NC(=O)C3CC3)nc3[nH]ccc23)C(C)C1 (centres unmarked) [Example 320, methyl 3-(4-(6-(cyclopropanecarboxamido)-1H-pyrrolo[2,3-b]pyridin-4-yl)-3-methyl-3,6-dihydropyridin-1 (2H)-yl)-2-methyl-3-oxopropanoate]
> 0.2	CC1CN(C(=O)c2ccc(C(C)(C)C)[nH]c2=O)CC=C1c1cc(NC(=O)C2CC2)nc2[nH]ccc12 (centres unmarked) [Example 321, N-(4-(1-(6-(tert-butyl)-2-oxo-1,2-dihydropyridine-3-carbonyl)-3-methyl-1,2,3,6-tetrahydropyridin-4-yl)-1H-pyrrolo[2,3-b]pyridin-6-yl)cyclopropanecarboxamide]
> 0.2	CC1CN(C(=O)c2ccc(-c3ccc(F)cc3)[nH]c2=O)CC=C1c1cc(NC(=O)C2CC2)nc2[nH]ccc12 (centres unmarked) [Example 322, N-(4-(1-(6-(4-fluorophenyl)-2-oxo-1,2-dihydropyridine-3-carbonyl)-3-methyl-1,2,3,6-tetrahydropyridin-4-yl)-1H-pyrrolo[2,3-b]pyridin-6-yl)cyclopropanecarboxamide]
> 0.2	CC1CN(C(=O)c2ccc(NCCN3CCOCC3)c(F)c2)CC=C1c1cc(NC(=O)C2CC2)nc2[nH]ccc12 (centres unmarked) [Example 323, N-(4-(1-(3-fluoro-4-((2-morpholinoethyl)amino)benzoyl)-3-methyl-1,2,3,6-tetrahydropyridin-4-yl)-1H-pyrrolo[2,3-b]pyridin-6-yl)cyclopropanecarboxamide]
0.02 to 0.2	CC1CN(C(=O)c2cncc(Br)c2)CC=C1c1cc(NC(=O)C2CC2)nc2[nH]ccc12 (centres unmarked) [Example 324, N-(4-(1-(5-bromonicotinoyl)-3-methyl-1,2,3,6-tetrahydropyridin-4-yl)-1H-pyrrolo[2,3-b]pyridin-6-yl)cyclopropanecarboxamide]
0.02 to 0.2	CC1CN(C(=O)c2ccc3c(c2)OCCO3)CC=C1c1cc(NC(=O)C2CC2)nc2[nH]ccc12 (centres unmarked) [Example 325, N-(4-(1-(2,3-dihydrobenzo[b][1,4]dioxine-6-carbonyl)-3-methyl-1,2,3,6-tetrahydropyridin-4-yl)-1H-pyrrolo[2,3-b]pyridin-6-yl)cyclopropanecarboxamide]
0.02 to 0.2	CC1CN(C(=O)c2ccc3c(c2)OCO3)CC=C1c1cc(NC(=O)C2CC2)nc2[nH]ccc12 (centres unmarked) [Example 326, N-(4-(1-(benzo[d][1,3]dioxole-5-carbonyl)-3-methyl-1,2,3,6-tetrahydropyridin-4-yl)-1H-pyrrolo[2,3-b]pyridin-6-yl)cyclopropanecarboxamide]
0.02 to 0.2	CC1CN(C(=O)c2ccc3cc[nH]c3c2)CC=C1c1cc(NC(=O)C2CC2)nc2[nH]ccc12 (centres unmarked) [Example 327, N-(4-(1-(1H-indole-6-carbonyl)-3-methyl-1,2,3,6-tetrahydropyridin-4-yl)-1H-pyrrolo[2,3-b]pyridin-6-yl)cyclopropanecarboxamide]
0.02 to 0.2	CC1CN(C(=O)c2ccnc3[nH]ccc23)CC=C1c1cc(NC(=O)C2CC2)nc2[nH]ccc12 (centres unmarked) [Example 328, N-(4-(3-methyl-1-(1H-pyrrolo[2,3-b]pyridine-4-carbonyl)-1,2,3,6-tetrahydropyridin-4-yl)-1H-pyrrolo[2,3-b]pyridin-6-yl)cyclopropanecarboxamide]
0.02 to 0.2	COc1ccc(C(=O)N2CC=C(c3cc(NC(=O)C4CC4)nc4[nH]ccc34)C(C)C2)cc1OC (centres unmarked) [Example 329, N-(4-(1-(3,4-dimethoxybenzoyl)-3-methyl-1,2,3,6-tetrahydropyridin-4-yl)-1H-pyrrolo[2,3-b]pyridin-6-yl)cyclopropanecarboxamide]
0.02 to 0.2	COc1cccc(C(=O)N2CC=C(c3cc(NC(=O)C4CC4)nc4[nH]ccc34)C(C)C2)c1 (centres unmarked) [Example 330, N-(4-(1-(3-methoxybenzoyl)-3-methyl-1,2,3,6-tetrahydropyridin-4-yl)-1H-pyrrolo[2,3-b]pyridin-6-yl)cyclopropanecarboxamide]
0.02 to 0.2	CC1CN(C(=O)c2ccc([N+](=O)[O-])cc2)CC=C1c1cc(NC(=O)C2CC2)nc2[nH]ccc12 (centres unmarked) [Example 331, N-(4-(3-methyl-1-(4-nitrobenzoyl)-1,2,3,6-tetrahydropyridin-4-yl)-1H-pyrrolo[2,3-b]pyridin-6-yl)cyclopropanecarboxamide]
> 0.2	CC(=O)c1cccc(C(=O)N2CC=C(c3cc(NC(=O)C4CC4)nc4[nH]ccc34)C(C)C2)c1 (centres unmarked) [Example 332, N-(4-(1-(3-acetylbenzoyl)-3-methyl-1,2,3,6-tetrahydropyridin-4-yl)-1H-pyrrolo[2,3-b]pyridin-6-yl)cyclopropanecarboxamide]
0.02 to 0.2	CC1CN(C(=O)c2ccc(Cl)cc2)CC=C1c1cc(NC(=O)C2CC2)nc2[nH]ccc12 (centres unmarked) [Example 333, N-(4-(1-(4-chlorobenzoyl)-3-methyl-1,2,3,6-tetrahydropyridin-4-yl)-1H-pyrrolo[2,3-b]pyridin-6-yl)cyclopropanecarboxamide]
0.02 to 0.2	CC1CN(C(=O)c2cccc(Br)c2)CC=C1c1cc(NC(=O)C2CC2)nc2[nH]ccc12 (centres unmarked) [Example 334, N-(4-(1-(3-bromobenzoyl)-3-methyl-1,2,3,6-tetrahydropyridin-4-yl)-1H-pyrrolo[2,3-b]pyridin-6-yl)cyclopropanecarboxamide]
0.02 to 0.2	CC1CN(C(=O)c2ccc(Cl)nc2)CC=C1c1cc(NC(=O)C2CC2)nc2[nH]ccc12 (centres unmarked) [Example 335, N-(4-(1-(6-chloronicotinoyl)-3-methyl-1,2,3,6-tetrahydropyridin-4-yl)-1H-pyrrolo[2,3-b]pyridin-6-yl)cyclopropanecarboxamide]
0.02 to 0.2	CC1CN(C(=O)c2ccncc2)CC=C1c1cc(NC(=O)C2CC2)nc2[nH]ccc12 (centres unmarked) [Example 336, N-(4-(1-isonicotinoyl-3-methyl-1,2,3,6-tetrahydropyridin-4-yl)-1H-pyrrolo[2,3-b]pyridin-6-yl)cyclopropanecarboxamide]
0.02 to 0.2	CC1CN(C(=O)c2cccc(Br)n2)CC=C1c1cc(NC(=O)C2CC2)nc2[nH]ccc12 (centres unmarked) [Example 337, N-(4-(1-(6-bromopicolinoyl)-3-methyl-1,2,3,6-tetrahydropyridin-4-yl)-1H-pyrrolo[2,3-b]pyridin-6-yl)cyclopropanecarboxamide]
0.02 to 0.2	CC(Br)CC(=O)N1CC=C(c2cc(NC(=O)C3CC3)nc3[nH]ccc23)C(C)C1 (centres unmarked) [Example 338, N-(4-(1-(3-bromobutanoyl)-3-methyl-1,2,3,6-tetrahydropyridin-4-yl)-1H-pyrrolo[2,3-b]pyridin-6-yl)cyclopropanecarboxamide]
0.02 to 0.2	CC1CN(C(=O)/C=C/CCBr)CC=C1c1cc(NC(=O)C2CC2)nc2[nH]ccc12 (centres unmarked) [Example 339, (E)-N-(4-(1-(5-bromopent-2-enoyl)-3-methyl-1,2,3,6-tetrahydropyridin-4-yl)-1H-pyrrolo[2,3-b]pyridin-6-yl)cyclopropanecarboxamide]
0.02 to 0.2	CC1CN(C(=O)CC2CCCC2)CC=C1c1cc(NC(=O)C2CC2)nc2[nH]ccc12 (centres unmarked) [Example 340, N-(4-(1-(2-cyclopentylacetyl)-3-methyl-1,2,3,6-tetrahydropyridin-4-yl)-1H-pyrrolo[2,3-b]pyridin-6-yl)cyclopropanecarboxamide]
> 0.2	COc1ccc(CC(=O)N2CC=C(c3cc(NC(=O)C4CC4)nc4[nH]ccc34)C(C)C2)cc1 (centres unmarked) [Example 341, N-(4-(1-(2-(4-methoxyphenyl)acetyl)-3-methyl-1,2,3,6-tetrahydropyridin-4-yl)-1H-pyrrolo[2,3-b]pyridin-6-yl)cyclopropanecarboxamide]
0.02 to 0.2	Cc1ccsc1C(=O)N1CC=C(c2cc(NC(=O)C3CC3)nc3[nH]ccc23)C(C)C1 (centres unmarked) [Example 342, N-(4-(3-methyl-1-(3-methylthiophene-2-carbonyl)-1,2,3,6-tetrahydropyridin-4-yl)-1H-pyrrolo[2,3-b]pyridin-6-yl)cyclopropanecarboxamide]
0.02 to 0.2	CC1CN(C(=O)c2cnccn2)CC=C1c1cc(NC(=O)C2CC2)nc2[nH]ccc12 (centres unmarked) [Example 343, N-(4-(3-methyl-1-(pyrazine-2-carbonyl)-1,2,3,6-tetrahydropyridin-4-yl)-1H-pyrrolo[2,3-b]pyridin-6-yl)cyclopropanecarboxamide]
> 0.2	Cc1cnc(C(=O)N2CC=C(c3cc(NC(=O)C4CC4)nc4[nH]ccc34)C(C)C2)cn1 (centres unmarked) [Example 344, N-(4-(3-methyl-1-(5-methylpyrazine-2-carbonyl)-1,2,3,6-tetrahydropyridin-4-yl)-1H-pyrrolo[2,3-b]pyridin-6-yl)cyclopropanecarboxamide]
0.02 to 0.2	CC1CN(C(=O)Cc2cccs2)CC=C1c1cc(NC(=O)C2CC2)nc2[nH]ccc12 (centres unmarked) [Example 345, N-(4-(3-methyl-1-(2-(thiophen-2-yl)acetyl)-1,2,3,6-tetrahydropyridin-4-yl)-1H-pyrrolo[2,3-b]pyridin-6-yl)cyclopropanecarboxamide]
